Test results published in patent publication US20040024024A1, “Aromatic sulfone hydroxamates and their use as protease inhibitors” (priority 2001, published 2004).

Legend:
Format in all cases: biochemical
Human recombinant MMP-2 = molecular target: T1, Human recombinant MMP-2 (Homo sapiens, UniProt P08253); test: In vitro MMP inhibition, IC50 determination (fluorogenic substrate I)
T1 construct: made in house; host or cells: MMP-2-transfected p2AHT2 cells
T1 sequence (P08253 110-660): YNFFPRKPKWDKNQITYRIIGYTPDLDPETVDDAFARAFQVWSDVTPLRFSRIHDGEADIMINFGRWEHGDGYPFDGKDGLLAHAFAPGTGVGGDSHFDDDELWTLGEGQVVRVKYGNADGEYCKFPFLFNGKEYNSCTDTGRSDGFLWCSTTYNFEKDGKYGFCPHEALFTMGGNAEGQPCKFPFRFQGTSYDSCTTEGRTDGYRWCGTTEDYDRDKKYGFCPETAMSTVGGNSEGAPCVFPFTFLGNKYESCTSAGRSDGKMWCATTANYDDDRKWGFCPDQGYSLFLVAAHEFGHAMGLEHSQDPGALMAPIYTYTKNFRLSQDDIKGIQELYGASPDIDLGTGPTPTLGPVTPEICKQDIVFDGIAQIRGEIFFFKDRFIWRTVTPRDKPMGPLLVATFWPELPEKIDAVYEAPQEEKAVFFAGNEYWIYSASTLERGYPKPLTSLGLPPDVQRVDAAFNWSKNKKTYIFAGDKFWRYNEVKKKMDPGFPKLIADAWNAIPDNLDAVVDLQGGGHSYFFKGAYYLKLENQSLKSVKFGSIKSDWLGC
Summary of the method: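 IC50 was derived from the concentration-dependent fall in fluorescence (ex 328, em 415 nm) on Gly-Leu cleavage of 4 μM MCA/Dpa-quenched substrate I. Assays ran at room temperature in pH 7.5 Tris/NaCl/CaCl2/Brij buffer with MMP-2 activated by trypsin or APMA; inhibitors were diluted from 1% DMSO stocks.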

Human recombinant MMP-14 [1] = molecular target: T2, Human recombinant MMP-14 (Homo sapiens, UniProt P50281); test: as above
T2 construct: The catalytic domain enzyme was expressed in E. coli inclusion bodies, solubilized in urea; made in house
Summary of the method: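 IC50 came from reduced fluorescence (ex 328 nm, em 415 nm) as inhibitor concentration rose, with 4 μM substrate I cleaved at Gly-Leu. Room-temperature incubation in pH 7.5 Tris buffer with 10 mM CaCl2; the E. coli-expressed, refolded MMP-14 catalytic domain was activated with trypsin or APMA.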

Human recombinant MMP-14 [2] = molecular target: T2, Human recombinant MMP-14; test: In vitro MMP inhibition, Ki determination (fluorogenic substrate II)
Experimental: Several hydroxamates and salts thereof were analyzed in in vitro assays to determine their ability to inhibit the MMP cleavage of peptide substrates. Inhibition (Ki) and IC50 constants were calculated from the assayed hydroxamate-MMP interactions.
Human recombinant MMP-1, MMP-2, MMP-9, MMP-13, and MMP-14 were used in this assay. All enzymes were prepared in Assignee's laboratories following usual laboratory procedures. Protocols for the preparation and use of these enzymes are available in the scientific literature. See, e.g., Enzyme Nomenclature (Academic Press, San Diego, Calif., 1992) (and the citations therein). See also, Frije et al., J. Biol. Chem., 26(24), 16766-73 (1994).
The MMP-14 full length cDNA was provided by Dr. Gregory Goldberg of Washington University (St. Louis, Mo.). The catalytic domain enzyme was expressed in E. coli inclusion bodies, solubilized in urea, purified on a preparative […] reverse phase HPLC column, and then refolded in the presence of zinc acetate and purified for use.
All MMPs were activated using 4-aminophenylmercuric acetate (“APMA”, Sigma Chemical, St. Louis, Mo.) or trypsin. MMP-9 also was activated using human recombinant MMP-3 (purified in Assignee's laboratory following standard cloning and purification techniques).
Two fluorogenic, methoxycoumarin-containing polypeptide substrates were used in the MMP inhibition assays:
MCA-ArgProLeuGlyLeuDpaAlaArgGluArgNH2 (II)
Here, “Dpa” is 3-(2,4-dinitrophenyl)-L-2,3-diaminopropionyl group, and “MCA” is 7-methoxycoumarin-4-yl acetyl. Substrate (I) was purchased from Baychem (Redwood City, Calif.), and substrate II was prepared Assignee's laboratory. Substrate I was used in the IC50 determination assays, while substrate II was used in the Ki determination assays. In the absence of MMP inhibitory activity, either substrate is cleaved at the Gly-Leu peptide bond. This cleavage separates the highly fluorogenic peptide from the 2,4-dinitrophenyl quencher, thus resulting in increase of fluorescent intensity.
The stock solutions of the assayed hydroxamates (or salts thereof) were prepared in 1% dimethyl sulfoxide (DMSO). These stock solutions were diluted in Buffer A (100 mM Tris-HCl, 100 mM NaCl, 10 mM CaCl2, 0.05% polyoxyethylene 23 lauryl ether, pH 7.5) to obtain solutions with different hydroxamate concentrations, i.e., assay solutions with different concentrations of the assayed MMP inhibitory compound. The experiment controls contained the same amount of Buffer A/DMSO as the assayed sample, but contained no hydroxamate (or salt thereof).
The assays from which the Ki determinations were made were performed as follows. The assayed hydroxamate samples were incubated in separate wells of untreated white polystyrene plates (Nunc Nalgene International, Rochester, N.Y.), and analyzed on a Tecan SpectraFlour Plus plate reader. The excitation wavelength was 330 nm, and the emission wavelength—420 nm. All samples (assayed hydroxamates and controls) were incubated in separate plate wells at room temperature for 1 hr in the presence of 4 μM of MMP substrate (II). In the absence of MMP inhibitory activity, substrate II was cleaved at the Gly-Leu bond resulting in an increase of relative fluorescence. Inhibition was observed as a reduced rate of this increase in relative fluorescence. The various hydroxamates were analyzed using a single low enzyme concentration with a single substrate concentration fixed at or below the Km. This protocol is a modification of method by Knight et al., FEBS Lett., 296(3), 263-266 (1992). Apparent inhibitory constants were determined by non-linear regression of reaction velocity as a function of inhibitor and enzyme concentration using Morrison's equation, as described by Kuzmic, Anal. Biochem. 286, 45-50 (2000). Modifications were made in the non-linear regression method to allow a common control reaction rate and effective enzyme concentration to be shared between all dose-response relationships on a given assay plate. […]

Row | SMILES | IC50 (Human recombinant MMP-2; value outside parenthesis) [µM] | IC50 (Human recombinant MMP-14 [1]; value outside parenthesis) [µM] | Ki (Human recombinant MMP-14 [2]; value in parenthesis) [µM] | IC50 (Human recombinant MMP-2; value outside parentheses) [µM] | IC50 (Human recombinant MMP-14 [1]; value outside parentheses) [µM] | Ki (Human recombinant MMP-14 [2]; value in parentheses) [µM]
1 | O=C(NO)C1(S(=O)(=O)c2ccc(OCCCc3cccc(-c4ccccc4F)c3)cc2)CCOCC1 [Example 163] | 1.37 | > 10 | > 10 |  |  | 
2 | COCCN1CCC(C(=O)NO)(S(=O)(=O)c2ccc(OCCCc3nc(-c4ccc(CC(C)C)cc4)no3)cc2)CC1 [Example 175] | 0.438 | > 10 | > 10 |  |  | 
3 | COCCN1CCC(C(=O)NO)(S(=O)(=O)c2ccc(OCCCc3nnc(-c4ccccc4C(F)(F)F)o3)cc2)CC1 [Example 178] | 0.0284 | > 10 | > 10 |  |  | 
4 | O=C(CCCOc1ccc(S(=O)(=O)C2(C(=O)NO)CCOCC2)cc1)Nc1cccc(OC(F)(F)F)c1 [Example 181] | 0.0139 | 8.06 | 4.83 |  |  | 
5 | CC(C)c1cccc(NC(=O)CCCOc2ccc(S(=O)(=O)C3(C(=O)NO)CCOCC3)cc2)c1 [Example 182] | 0.0331 | > 10 | 5.85 |  |  | 
6 | COCCN1CCC(C(=O)NO)(S(=O)(=O)c2ccc(OCCCc3nc(-c4ccc(OC(F)(F)F)cc4)no3)cc2)CC1 [Example 190] | 0.166 | > 10 | > 10 |  |  | 
7 | O=C(NO)C1(S(=O)(=O)c2ccc(OCCCc3ccnc(-c4ccccc4)c3)cc2)CCOCC1 [Example 197] | 0.0132 | > 10 | > 10 |  |  | 
8 | O=C(CCCc1ccc(S(=O)(=O)C2(C(=O)NO)CCOCC2)cc1)c1cccc(-c2ccccc2)c1 [Example 219] | 0.0608 | > 10 | 7.94 |  |  | 
9 | O=C(CCCOc1ccc(S(=O)(=O)C2(C(=O)NO)CCOCC2)cc1)Nc1ccc(OC(F)(F)F)cc1 [Example 228] | 0.0114 | > 10 | 6.29 |  |  | 
10 | Cc1cc(OC(F)(F)F)ccc1NC(=O)CCCOc1ccc(S(=O)(=O)C2(C(=O)NO)CCOCC2)cc1 [Example 229] | 0.0122 | > 10 | 7.87 |  |  | 
11 | COc1ccc(/C(C#N)=C/CCCOc2ccc(S(=O)(=O)C3(C(=O)NO)CCN(C4CC4)CC3)cc2)cc1 [Example 233] | 0.0255 | > 10 | > 10 |  |  | 
12 | CN(C(=O)CCCOc1ccc(S(=O)(=O)C2(C(=O)NO)CCOCC2)cc1)c1ccc(OC(F)(F)F)cc1 [Example 249] | 0.226 | > 10 | > 10 |  |  | 
13 | O=C(CCCOc1ccc(S(=O)(=O)C2(C(=O)NO)CCOCC2)cc1)Nc1ccc(OC(F)(F)F)cc1 [Example 250] | 0.0025 | 7.63 | 1.7 |  |  | 
14 | Cc1cc(NC(=O)CCCOc2ccc(S(=O)(=O)C3(C(=O)NO)CCOCC3)cc2)ccc1OC(C)C [Example 290] | 0.59 | > 10 | > 10 |  |  | 
15 | O=C(NO)C1(S(=O)(=O)c2ccc(OCCCc3cncc(-c4ccc(F)cc4)c3)cc2)CCOCC1 [Example 523] |  |  |  | 0.162 | > 10 | > 10
16 | O=C(NO)C1(S(=O)(=O)c2ccc(OCCCc3cncc(-c4ccccc4)c3)cc2)CCOCC1 [Example 524] |  |  |  | 0.0383 | > 10 | > 10
17 | O=C(NO)C1(S(=O)(=O)c2ccc(OCCCc3cc(-c4ccc(F)cc4F)cs3)cc2)CCOCC1 [Example 587] |  |  |  | 0.0817 | > 10 | 4.15
18 | CCN1CCC(C(=O)NO)(S(=O)(=O)c2ccc(OCCCSc3nc4ccccc4s3)cc2)CC1 [Example 591] |  |  |  | 0.0035 | > 10 | 8.74
19 | O=C(NO)C1(S(=O)(=O)c2ccc(OCCCc3cccc(-c4cccs4)c3)cc2)CCOCC1 [Example 595] |  |  |  | 0.482 | > 10 | > 10
20 | O=C(Cc1csc2ccccc12)NCCOc1ccc(S(=O)(=O)C2(C(=O)NO)CCOCC2)cc1 [Example 596] |  |  |  | 0.0103 | 2.49 | 1.16
21 | O=C(NO)C1(S(=O)(=O)c2ccc(OCCCc3cc(-c4ccc(OC(F)(F)F)cc4)cs3)cc2)CCOCC1 [Example 608] |  |  |  | 0.342 | > 10 | > 10
22 | N#Cc1ccc(-c2cccc(CCCOc3ccc(S(=O)(=O)C4(C(=O)NO)CCOCC4)cc3)c2)cc1 [Example 624] |  |  |  | 0.214 | > 10 | 7.58
23 | O=C(NO)C1(S(=O)(=O)c2ccc(OCCCc3cccc(-c4ccc([N+](=O)[O-])cc4)c3)cc2)CCOCC1 [Example 626] |  |  |  | 0.143 | > 10 | > 10
24 | O=C(NO)C1(S(=O)(=O)c2ccc(OCCCc3cccc(-c4ccc5c(c4)OCO5)c3)cc2)CCOCC1 [Example 628] |  |  |  | 1.7 | > 10 | > 10
25 | O=C(NO)C1(S(=O)(=O)c2ccc(OCCCc3cccc(-c4ccc(F)cc4F)c3)cc2)CCOCC1 [Example 630] |  |  |  | 1.17 | > 10 | > 10
26 | O=C(NO)C1(S(=O)(=O)c2ccc(OCCCc3cccc(-c4ccsc4)c3)cc2)CCOCC1 [Example 632] |  |  |  | 0.091 | > 10 | > 10
